Experimental data taken from patent publication US7091247B2, “Biphenyl compound” (Takeda Pharmaceutical Company Limited, priority 2000, dated 2006).
Structures can show the parent of a compound that is named as a salt.

Experiments:
[1] = target: T1, human GPR14 (Homo sapiens, UniProt Q9UKP6); assay: Inhibition of binding of [125I]-labeled human urotensin II to human GPR14-expressing CHO cell membrane fraction; conditions: 25° C., 3 hours, read-out: Inhibitory concentration (concentration showing 50% inhibition of human GPR14 binding activity)
T1 construct: expressed in transfected cells; host or cells: CHO dhfr- cells stably transfected with pcDNA3.1-hGPR14 (CHO/hGPR14)
T1 sequence (Q9UKP6 1-389): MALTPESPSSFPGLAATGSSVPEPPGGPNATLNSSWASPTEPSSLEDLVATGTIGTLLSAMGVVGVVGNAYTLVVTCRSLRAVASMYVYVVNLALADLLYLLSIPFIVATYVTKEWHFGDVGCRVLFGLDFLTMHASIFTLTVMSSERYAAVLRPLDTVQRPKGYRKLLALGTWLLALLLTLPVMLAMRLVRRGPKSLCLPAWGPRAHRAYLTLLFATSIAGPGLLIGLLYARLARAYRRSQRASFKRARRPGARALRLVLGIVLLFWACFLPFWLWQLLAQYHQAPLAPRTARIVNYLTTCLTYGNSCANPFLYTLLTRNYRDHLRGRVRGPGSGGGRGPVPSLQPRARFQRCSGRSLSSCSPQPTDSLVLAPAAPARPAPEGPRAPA
Protocol: To 1×10^8 CHO/GPR14 cells were added 10 ml of homogenate buffer (10 mM NaHCO3, 5 mM EDTA, 0.5 mM PMSF, 1 μg/ml pepstatin, 4 μg/ml E64, 20 μg/ml leupeptin), and disrupted using Polytron (12,000 rpm, 1 minute). Cell debris solution was centrifuged at 1,000 g for 15 minutes to obtain a supernatant. The supernatant was then […] (in Beckman type 30 rotor, 30,000 rpm, 1 hour), and the resultant precipitant was collected as human GPR14-expressing CHO cell fraction.
Isotope-labeled human urotensin II to be used in experiments for testing inhibition of binding was prepared as described below. 5 μg of human urotensin II (available from Peptide Institute, Inc.) was dissolved in 25 μl of 0.4 M sodium acetate (pH 5.6). […]
Human GPR14-expressing CHO cell fraction was diluted in a membrane diluting buffer (20 mM phosphate buffer (pH 7.3), 150 mM NaCl, 5 mM MgCl2, 0.1% BSA, 0.05% CHAPS, 0.5 mM PMSF, 0.1 μg/ml Pepstatin, 20 μg/ml Leupeptin, 4 μg/ml E-64) to prepare a solution of cell membrane fraction (protein concentration: 3 μg/ml) for assay. […] Next, the filter was washed three times with membrane diluting buffer (0.2 ml), added with 20 μl of Microscinti 20 (Packard), and determined for radioactivity in Topcount (Packard). Specific-binding is calculated by subtracting non-specific binding from the total binding. […]

[2] = target: T2, GPR14-expressing CHO cells (Homo sapiens, UniProt Q9UKP6); assay: Change in intracellular calcium concentration in human GPR14-expressing CHO cells (FLIPR, urotensin II-induced); assay type: cell-based; conditions: antagonist activity assay, 10 nM urotensin II added
T2 construct: expressed in transfected cells; host or cells: CHO dhfr- cells stably transfected with pcDNA3.1-hGPR14 (CHO/hGPR14)
T2 sequence (Q9UKP6 1-389): T1 sequence (Q9UKP6 1-389)
Protocol: GPR14-expressing CHO cells were inoculated on a 96-well plate at 1×10^4 cell/well, cultured for 48 hours, and then washed with 0.1 ml of HBSS containing 20 mM HEPES(pH 7.4), 1% FCS and 1% penicillin-streptomycin (hereinafter referred to as “wash buffer”). Next, 100 μl of another wash buffer containing 4 μM Fluo3, 0.04% pluronic acid and 2.5 mM probenicid (hereinafter referred to as “reaction buffer”) was added thereto for reaction at 37° C. for 1 hour. The reaction buffer was then removed and the plate was washed three times with 0.2 ml of wash buffer. Then, 90 μl of wash buffer and 10 μl of a solution of test compound in dimethylsulfoxide diluted 10 times (by volume) in membrane diluting buffer were added for agonist activity assay, while, for antagonist activity assay, furthermore 10 μl of 10 nM urotensin II was additionally added to determine change in intracellular calcium concentration in FLIPR (Japan Molecular Device).

[3] = target: T3, human somatostatin receptor protein subtype 5 (SSTR5) (Homo sapiens, UniProt P35346); assay: Inhibition of binding of [125I]-somatostatin to SSTR5-expressing CHO cell membrane fraction; conditions: 25° C., 60 minutes, Hill plots, read-out: IC50 (concentration at which 50% binding of [125I]-somatostatin was inhibited)
T3 construct: expressed in transfected cells; host or cells: CHO (dhfr-) cells transfected with pA-1-11-SSTR5; clone SSTR5-32-4
Protocol: (3) —(CH2)h1—X^1—(CH2)h2—X^2—(CH2)h3— (h1, h2 and h3 are the same or different integers 0 to 10 provided that the sum of h1, h2 and h3 is 0 to 10, and X^1 and X^2 independently represent NH, O, S, SO or SO2 provided that, when h2 is 0, at least one of X^1 and X^2 is preferably NH); etc., and these divalent groups wherein some bonds have been converted into unsaturated bonds. […]
The SSTR5-expressing CHO cell membrane fraction prepared in Example 5 was diluted with the assay buffer to prepare a solution at a concentration of 3 •g/ml and pipetted into tubes (173 •l/tube). […] After filtration, the radioactivity of [^125I]-somatostatin remaining on the glass filer was measured with a • counter.
The degree of inhibition of binding (%) by each test substance was determined according to the following equation: The degree of inhibition of binding (%)=(radioactivity when the compound was added−radioactivity when DMSO solution was added)/(radioactivity when somatostatin was added−radioactivity when DMSO solution was added)×100. […]

T3 sequence (P35346 whole entry): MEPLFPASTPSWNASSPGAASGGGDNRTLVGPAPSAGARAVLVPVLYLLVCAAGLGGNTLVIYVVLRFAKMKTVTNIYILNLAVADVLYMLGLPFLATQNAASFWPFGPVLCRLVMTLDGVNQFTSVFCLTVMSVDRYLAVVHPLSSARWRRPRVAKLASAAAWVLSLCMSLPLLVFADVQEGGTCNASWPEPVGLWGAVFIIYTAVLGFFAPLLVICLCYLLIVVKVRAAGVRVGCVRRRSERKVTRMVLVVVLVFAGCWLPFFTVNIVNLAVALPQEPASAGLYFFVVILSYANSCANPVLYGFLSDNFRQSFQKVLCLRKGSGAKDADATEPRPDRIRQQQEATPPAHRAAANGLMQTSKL

Compound | IC50 [1] | IC50 [3] | further results
NCCNC(=O)c1cccc(-c2cccc(CN(CCc3ccc(S(N)(=O)=O)cc3)C(=O)/C=C/c3ccccc3)c2)c1.O=C(O)C(F)(F)F [Example 71, N-(2-Aminoethyl)-3′-({[4-(aminosulfonyl)phenethyl][(E)-3-phenyl-2-propenoyl]amino}methyl)[1,1′-biphenyl]-3-carboxamide trifluoroacetate] | – | – | Inhibition of urotensin II-induced increase in intracellular calcium concentration [2]: inhibited urotensin II-induced increase in intracellular calcium concentration
N=C(N)NCc1cccc(C(=O)N(Cc2cccc(-c3ccccc3C(=O)NCCN)c2)Cc2cccc3ccccc23)c1 [Example 325, N-(2-Aminoethyl)-3′-{[[3-({[amino(imino)methyl]amino}methyl)benzoyl](1-naphthylmethyl)amino]methyl}-1,1′-biphenyl-2-carboxamide trifluoroacetate] | – | 6 nM | –
NCCNC(=O)c1ccccc1-c1cccc(CN(Cc2cccc3ccccc23)C(=O)c2ccc(S(N)(=O)=O)cc2)c1 [Example 328, N-(2-Aminoethyl)-3′-{[[4-(aminosulfonyl)benzoyl](1-naphthylmethyl)amino]methyl}-1,1′-biphenyl-2-carboxamide trifluoroacetate] | – | 3 nM | –

Further lines, with some results ahead:

IC50 [1] | IC50 [3] | Compound | further results
10 nM | – | NS(=O)(=O)c1ccc(CCN(Cc2cccc(-c3cccc(C(=O)NCCN4CCCC4)c3)c2)C(=O)CCCc2ccccc2)cc1 [Example 4, 3′-{({2-[4-(Aminosulfonyl)phenyl]ethyl}[4-phenylbutanoyl]amino)methyl}-N-[2-(1-pyrrolidinyl)ethyl][1,1′-biphenyl]-3-carboxamide hydrochloride] | –
13 nM | – | NS(=O)(=O)c1ccc(CCN(Cc2cccc(-c3cccc(C(=O)NCCN4CCCC4)c3)c2)C(=O)COCc2ccccc2)cc1 [Example 6, 3′-{({2-[4-(Aminosulfonyl)phenyl]ethyl}[(benzyloxy)acetyl]amino)methyl}-N-[2-(1-pyrrolidinyl)ethyl][1,1′-biphenyl]-3-carboxamide hydrochloride] | –
